Where a SMILES comes first, the peptide text is derived from it. Where no end group is shown, it is not given here.
Experiments:
ENL = biological target: T1, ENL (Homo sapiens, UniProt Q03111); assay: Solution competitive SPR assay of peptides, ENL-DOT1L interaction; type: binding; settings: read-out: IC50 against ENL (block PPI DOT1L/ENL)
T1 construct: against AF9(497-568) and ENL (489-559) proteins running different tested concentrations over CM5 chip; MBP (pMSCG9-LIC vector); made in house; host or cells: Escherichia coli BL21 (DE3)
T1 sequence (Q03111 489-559): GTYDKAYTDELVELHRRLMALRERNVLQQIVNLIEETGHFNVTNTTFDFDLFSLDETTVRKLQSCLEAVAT
Protocol: (§1) Solution competitive SPR based assay was performed to determine the IC50 values of DOT1L peptides. […] Response units (RU) were measured at 15 seconds in the dissociation phase and the specific binding was calculated by subtracting the control surface (Fcl) signal from the surfaces with immobilized Mocr-DOT1L. IC50 values were determined by non-linear least squares analysis using Graph Pad Prism 5.0 software.

MBP-ENL (489-559) = biological target: T2, MBP-ENL (489-559) (Homo sapiens, UniProt Q03111); assay: Isothermal titration calorimetry with MBP-ENL; type: binding; settings: ITC, MBP-tagged ENL, 1:1 stoichiometry; read-out: KD to ENL protein
T2 construct: MBP-ENL (489-559) was dialysed extensively; made in house; host or cells: Escherichia coli BL21 (DE3)
T2 sequence (Q03111 489-559): T1 sequence (Q03111 489-559)
Protocol: (§2) Isothermal titration calorimetry—ITC was carried out using a Nano-ITC Micro Calorimeter (TA Instruments) at 20° C. MBP-ENL (489-559) was dialysed extensively against 50 mM Na2HPO4, (pH 7.5) and 100 mM NaCl, and 80 μM was used for titration studies of DOT1L 16-mer and 10-mer peptides, and 110 μM for DOT1L 7-mer titration. Tested peptides dissolved in the same buffer at 400 μM (DOT1L 16-mer and 10-mer) or 500 μM (DOT1L 7-mer) were tested by injecting 2 μl aliquots into the protein sample, at time intervals of […], to ensure that the titration peak returned to the baseline. The ITC data were analyzed by NanoAnalyze software package using a one site-binding model.

[1] = biological target: T3, Flag-DOT1L and Myc-CxxC-AF9 interaction (Homo sapiens, UniProt P42568+Q03164); assay: Co-immunoprecipitation in HEK 293 cell lysate; type: binding; settings: HEK 293 whole cell lysate pre-incubated with peptide
T3 construct: expressed in transfected cells; host or cells: HEK 293
Protocol: (§3) To assess whether DOT1L 10-mer peptide can bind and block the interaction between full length DOT1L and MLL-fusion proteins HEK 293 cells were transiently co-transfected ith Flag-tagged human DOT1L protein and Myc-tagged CxxC-AF9 protein. The whole cell lysate was pre-incubated with different concentrations of DOT1L 10-mer peptide and co-immunoprecipitation (co-IP) experiments were performed. […] To further probe and confirm the cellular target for DOT1L 10-mer peptide, a biotinylated DOT1L 10-mer peptide was synthesized. To determine the binding affinity of this labeled peptide FP competitive based assay was used and tested together with corresponding unlabeled DOT1L 10 mer peptide.
Cell Culture, Transfections, and Immunoprecipitation—HEK293 cells were plated in 100 mm culture dishes and cultured in Dulbecco's modified Eagle's medium (DMEM) supplemented with 10% FBS and antibiotics. Co-transfection with FLAG-DOTL and Myc-CxxC-AF9 was performed using Lipofectamine 2000 (Invitrogen). […] After incubation, the beads were washed extensively, boiled in SDS loading buffer and analyzed by western blotting using mouse monoclonal anti-FLAG M2 (Sigma-Aldrich) and goat monoclonal anti-Myc tag (Abcam) antibody.

AF9 [2] = biological target: T4, AF9 (Homo sapiens, UniProt P42568); assay: Optimized competitive FP binding assay (N-Flu-DOT1L / AF9); parameters: the recombinant GB1-AF9 protein (residues 497-568); made in house; host or cells: Escherichia coli BL21 (DE3)
T4 sequence (P42568 497-568): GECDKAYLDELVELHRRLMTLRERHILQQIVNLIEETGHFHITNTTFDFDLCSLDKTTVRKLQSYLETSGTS

AF9 [3] = biological target: T4, AF9; assay: Solution competitive SPR assay of peptides, AF9-DOT1L interaction; type: binding; parameters: against AF9(497-568) and ENL (489-559) proteins running different tested concentrations over CM5 chip; GB1 (pGB1-LIC vector); made in house; host or cells: Escherichia coli BL21 (DE3); settings: read-out: IC50 against AF9 (block PPI DOT1L/AF9)
Protocol: as §1

MBP tag = MBP tag (Escherichia coli, UniProt P0AEX9); assay: Isothermal titration calorimetry with MBP tag only; type: binding; settings: ITC
Protocol: FIG. 4 describes isothermal titration calorimetry (ITC) of MBP tag only (80 μM) with a solution of DOT1L 16-mer (400 μM). The raw data are shown in the upper panel, and the integrated heat data are shown in the lower panel.
as §2

Myc-CxxC-AF9 = biological target: T5, Myc-CxxC-AF9 (Homo sapiens, UniProt P42568+Q03164); assay: Streptavidin-biotin pull-down in HEK 293 cell lysate; type: binding; settings: HEK 293 cell lysates
T5 construct: expressed in transfected cells; host or cells: HEK293
Protocol: as §3
Pull-down assay—HEK293 cells transfected with Myc-CxxC-AF9 were lysed in BC-300 lysis buffer in a same way as the immunoprecipitation experiment. The supernatant was pre-cleared for 2 h in streptavidin agarose beads (Thermal Scientific). The pre-cleared lysates were incubated with different concentrations of biotin-labeled DOT1L 10 mer peptide at 4° C. overnight. The next day, the cell lysate were incubated with streptavidin agarose at 4° C. for 2 h. After extensive washing the beads with the BC-300 lysis buffer without NP-40, the pull down samples were applied to SDS-PAGE electrophoresis and pull-down Myc-CxxC-AF9 protein was probed with goat monoclonal anti-Myc tag antibody (Abcam).

T5 sequence (Q03164+P42568 fused): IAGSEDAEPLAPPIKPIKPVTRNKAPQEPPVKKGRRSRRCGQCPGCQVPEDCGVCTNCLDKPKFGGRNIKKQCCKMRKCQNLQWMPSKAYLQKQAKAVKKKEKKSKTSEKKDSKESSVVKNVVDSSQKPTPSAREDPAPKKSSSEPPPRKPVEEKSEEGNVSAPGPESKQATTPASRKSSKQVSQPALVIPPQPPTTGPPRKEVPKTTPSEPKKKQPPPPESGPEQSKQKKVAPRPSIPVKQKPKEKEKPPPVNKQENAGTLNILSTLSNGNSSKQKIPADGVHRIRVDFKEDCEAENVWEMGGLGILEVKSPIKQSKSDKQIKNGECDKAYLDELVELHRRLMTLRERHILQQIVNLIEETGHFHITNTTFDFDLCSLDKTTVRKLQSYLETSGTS
T3 sequence (Q03164+P42568 fused): as above

Row | Compound | IC50 (ENL) [nM] | Kd (MBP-ENL (489-559)) [nM] | disruption of DOT1L / CxxC-AF9 interaction (co-IP) [1] | Ki (AF9 [2]) [nM] | IC50 (AF9 [3]) [nM] | binding to the MBP tag only (MBP tag) | binding to cellular CxxC-AF9 (pull-down) (Myc-CxxC-AF9)
1 | CC[C@H](C)[C@H](NC(=O)[C@@H]1CCCN1C(=O)[C@H](CC(C)C)NC(C)=O)C(=O)N[C@@H](CO)C(=O)N[C@H](C(=O)N1CCC[C@H]1C(=O)N[C@@H](CC(C)C)C(=O)N[C@@H](CO)C(=O)N[C@H](C(=O)N[C@H](C(N)=O)C(C)C)[C@@H](C)O)[C@@H](C)CC [DOT1L 10mer] (Ac-LPISIPLSTV-NH2) | 1340 | 1100 | blocks the interaction of cellular DOT1L with CxxC-AF9 in a dose dependent manner | 68 ± 15 | 490 | – | –
2 | CC[C@H](C)[C@H](NC(=O)[C@@H]1CCCN1C(=O)[C@H](CC(C)C)NC(C)=O)C(=O)N[C@@H](CO)C(=O)N[C@H](C(=O)N1CCC[C@H]1C(=O)N[C@@H](CC(C)C)C(=O)N[C@@H](CO)C(=O)N[C@H](C(=O)N[C@H](C(=O)N[C@@H](CCC(N)=O)C(=O)N1CCC[C@H]1C(=O)N[C@@H](CC(N)=O)C(=O)N[C@@H](CCCCN)C(=O)N[C@@H](CC(C)C)C(=O)N1CCC[C@H]1C(N)=O)C(C)C)[C@@H](C)O)[C@@H](C)CC [DOT1L 16 mer] (Ac-LPISIPLSTVQPNKLP-NH2) | 1560 | 900 | – | 80 | 320 | did not show any binding | –
3 | biotinylated DOT1L 10-mer peptide: DOT1L 10-mer peptide with N-terminal biotin group (LPISIPLSTV-NH2; not fully specified (N-terminus); also: N-terminal biotin coupled to lysine and two β-alanine spacer, order not given here) | – | – | – | – | – | – | recognizes and binds to the cellular CxxC-AF9 protein in a dose dependent manner

Source: patent US9862746B2, “Compositions and methods relating to hindering DOT1L recruitment by MLL-fusion proteins” (The Regents of the University of Michigan, priority 2013, dated 2018)
